In patent US6395738B1, “Benzofuran derivatives” (Kyowa Hakko Kogyo Co., Ltd., priority 1997, dated 2002):
In brackets after ≈: the same amount, converted by molar mass. Like-named read-outs stand apart in the source and are kept apart here.

Tests used:
TNF α = test: Inhibitory activity on production of TNF α in mouse model with LPS-induced sepsis; assay type: in vivo, BALB/c male mice; details: for Ratio of inhibition (%) of TNF α production: Dose (mg) 30, orally administered 90 minutes before LPS i.v., serum TNF α by ELISA 1 hour after LPS
[1] = target: T1, Recombinant Human PDE IV Enzyme (HSPDE4A) (Homo sapiens, UniProt P27815); test: Inhibition test on recombinant human PDE IV enzyme; assay type: biochemical; details: [3H]cAMP substrate
T1 construct: except that 223 amino acids have been deleted from the N-terminal thereof; made in house; host or cells: E. coli
T1 sequence (P27815 224-886 limits assumed): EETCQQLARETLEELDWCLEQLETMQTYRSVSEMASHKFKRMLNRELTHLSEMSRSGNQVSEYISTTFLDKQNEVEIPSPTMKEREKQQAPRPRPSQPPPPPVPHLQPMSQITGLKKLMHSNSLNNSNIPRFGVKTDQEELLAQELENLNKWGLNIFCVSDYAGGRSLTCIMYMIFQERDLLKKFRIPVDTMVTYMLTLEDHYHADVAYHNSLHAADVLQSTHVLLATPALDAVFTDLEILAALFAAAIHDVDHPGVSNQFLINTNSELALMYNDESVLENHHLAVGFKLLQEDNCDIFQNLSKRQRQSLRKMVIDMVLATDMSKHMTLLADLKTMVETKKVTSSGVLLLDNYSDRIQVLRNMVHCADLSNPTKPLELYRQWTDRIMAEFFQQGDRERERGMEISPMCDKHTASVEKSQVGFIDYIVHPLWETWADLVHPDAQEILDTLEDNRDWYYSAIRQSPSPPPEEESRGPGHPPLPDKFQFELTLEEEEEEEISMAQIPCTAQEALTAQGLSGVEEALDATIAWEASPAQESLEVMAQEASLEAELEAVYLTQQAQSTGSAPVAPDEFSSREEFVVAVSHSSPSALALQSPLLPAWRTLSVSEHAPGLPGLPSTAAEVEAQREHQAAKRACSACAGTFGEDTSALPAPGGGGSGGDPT
Protocol: Inhibition Test on Recombinant Human PDE IV Enzyme
Human phosphodiesterase cDNA (HSPDE4A) was isolated from testicles. Its predicted amino acid sequence is identical with the sequence (HSPDE4A5) reported by Bolger, G. et al. (Mol. Cell. Biol., 6558 (1993)) except that 223 amino acids have been deleted from the N-terminal thereof. This recombinant protein was expressed by an E. coli expression plasmid and then purified. The PDE activity was measured in the following 2-step process according to the method of Kincaid, R. and Manganiello, V. [Method. Enzymol., 159, 457 (1988)]. The substrate used was [^3H]cAMP (final concentration: […]), and the reaction was performed in a standard mixture containing N,N-bis(2-hydroxyethyl)-2-aminoethanesulfonic acid (50 mmol/l, pH 7.2), MgCl2 (1 mmol/l) and soybean trypsin inhibitor (0.1 mg/ml). The reaction was initiated by adding the enzyme thereto, and the mixture was incubated at 30° C. for 10 to 30 minutes. The reaction was quenched by hydrochloric acid, and the formed 5′-AMP was completely decomposed with […]. This sample was subjected to chromatography on DEAE-Sephadex A-25, and the eluted [^3H]adenosine was counted with a scintillation counter. The test compound was added after dissolved (concentration: 1.7%) in DMSO.

Water solubility = assay type: physicochemical
Protocol: Further, Compound (I) has an amide structure containing a piperazine ring at the 2-position of the benzofuran skeleton and can be converted into a pharmaceutically acceptable acid addition salt. […] For example, Compound 1 upon conversion into monohydrochloride becomes dissolved in water at a ratio of 7.4 μg/ml.

Male Sunkus murinus = test: Vomiting test on male Sunkus; assay type: in vivo; details: Dose (mg) 10; intraperitoneal; observed for 1 hour
Protocol: Vomiting Test on Male Sunkus
Male Sunkus murinus weighing about 60 g, 5 to 15 animals/group, were used in the test According to the method of Matsuki et al. (Japan J. Pharmacol., 48, 303 (1988)), each Sunkus animal was isolated and left in a wire-netting cage (15 cm width×21 cm length×15 cm height). Each test compound was suspended in physiological saline containing 0.5% Tween 80 and then intraperitoneally (i.p.) administered into each animal in a dose of 10 μl/g. […] The results were expressed in the number of animals with vomiting/the number of tested animals in the group given the test compound.
Compounds P and Q were used as the comparative compounds.

[2] = concentration of test compound 10^−7 mol/L
[3] = concentration of test compound 10^−8 mol/L

Structure (SMILES)	Ratio of inhibition (%) of TNF α production (TNF α) [%]	Ratio of inhibition (%) [1, 2] [%]	Ratio of inhibition (%) [1, 3] [%]	solubility (Water solubility; Compound 1 upon conversion into monohydrochloride, read-out: dissolved in water (water solubility)) [µg/mL]	melting point [°C]	Number of animals with vomiting/Number of tested animals (Male Sunkus murinus)	inhibitory activity on production of TNF α (in words) (TNF α; summary of Table 3)	solubility (Water solubility; read-out: water solubility) [µg/mL]
COc1ccc(C(=O)Nc2c(Cl)cncc2Cl)c2cc(C(=O)N3CCN(C)CC3)oc12 [Compound 1, 4-(3,5-Dichloro-4-pyridyl)carbamoyl-7-methoxy-2-(4-methyl-1-piperazinyl)carbonylbenzofuran]	68	75	25	7.4 (≈ 16 µM)	224 to 225	0/5	–	–
COc1ccc(C(=O)Nc2c(Cl)cncc2Cl)c2cc(C(=O)N3CCN(CCO)CC3)oc12 [Compound 2, 4-(3,5-Dichloro-4-pyridyl)carbamoyl-2-[4-(2-hydroxyethyl)-1-piperazinyl]carbonyl-7-methoxybenzofuran]	65	72	22	–	164 to 165	0/5	–	–
COc1ccc(C(=O)Cc2c(Cl)cncc2Cl)c2cc(C(=O)N3CCN(C)CC3)oc12 [Compound 13, 4-[2-(3,5-Dichloro-4-pyridyl)-1-oxoethyl]-2-(4-methyl-1-piperazinyl)carbonyl-7-methoxybenzofuran]	65	–	–	–	160 to 161	0/5	–	–
COc1ccc(C(=O)Cc2c(Cl)cncc2Cl)c2cc(C(=O)N3CCN(CCO)CC3)oc12 [Compound 14, 4-[2-(3,5-Dichloro-4-pyridyl)-1-oxoethyl]-2-[4-(2-hydroxyethyl)-1-piperazinyl]carbonyl-7-methoxybenzofuran]	65	–	–	–	155 to 156	0/5	–	–
COc1ccc(C(=O)Nc2c(Cl)cncc2Cl)c2cc(C(=O)c3ccccc3)oc12 [Compound Q, 2-benzoyl-4-(3,5-dichloro-4-pyridyl)carbamoyl-7-methoxybenzofuran, reference compound]	30	–	–	–	–	0/5	high inhibitory activity	≤ 1
